Test results from US5840750A, “Discodermolide compounds” (priority 1996, dated 1998).

How the values were obtained:
tubulin [1] = assay: EC50 for the polymerization of tubulin; format: biochemical; settings: additional studies
Experimental: (§1) Discodermolide was analyzed for its interactions with tubulin. Tubulin polymerization was monitored turbidimetrically at 350 nm with an electronic temperature controller. Reaction mixtures contained 0.1M 4-morpholine-ethanesulfonate (pH 6.9), 1.0 mg/ml (10 μM) electrophoretically-homogenous bovine brain tubulin freed of unbound nucleotide by gel filtration, 0.5 mg/ml heat-treated MAPs, 100 μM GTP, and 4% (v/v) dimethylsulfoxide. A concentration of 10 μM of discodermolide (curve 3) was compared with the same concentration of taxol (curve 2) and no drug (curve 1), as shown in FIG. 5.

[2] = system: murine lymphoid and non-lymphoid cell lines; assay: Constitutive proliferation of murine lymphoid and non-lymphoid cell lines (summary); format: cell-based; settings: Mus musculus, read-out: IC50 values, range over murine cell lines
Text: (§5) The effects of discodermolide on the inhibition of constitutive proliferation of a number of lymphoid and non-lymphoid cell lines of mouse or human origin was investigated.

tubulin [3] = assay: Electron micrographs of polymers of tubulin; format: biochemical; settings: compared with control
BMSC 8.6 = assay: Constitutive proliferation of murine non-lymphoid BMSC 8.6 cells; format: cell-based; settings: Mus musculus; BMSC 8.6 proliferation; best response
Text: (§2) ^d Bone marrow stromal cells (MBSC) derived from CS7BL/6 mice.

Swiss 3TC = assay: Constitutive proliferation of murine non-lymphoid Swiss 3TC cells; format: cell-based; settings: Mus musculus; Swiss 3TC proliferation; best response
Text: as §5

M14 = assay: NCI in vitro tumor cell line panel, LC50, melanoma; format: cell-based; settings: human melanoma (M14)
Text: (§3) Discodermolide was additionally evaluated for its anti-proliferative effects utilizing the National Cancer Institute's in vitro tumor cell line panel. The results of these analyses are shown in the mean graphs presented as FIGS. 1A-1K. The data are presented using known and accepted measurements of "Growth Inhibition-50" (GI50), where growth of 50% of the cells is inhibited; "Total Growth Inhibition" (TGI), where growth of all cells is inhibited, i.e., cytostasis; and "Lethal Concentration-50" (LC50), where 50% of the cells are killed.

human tumor cell lines = assay: National Cancer Institute's in vitro tumor cell line panel; format: cell-based
Text: as §3

[4] = system: microtubule cytoskeleton in MCF-7 cells and MDA-MB-231 cells; assay: Indirect immunofluorescence for effects on the microtubule cytoskeleton of human breast carcinoma cells; format: cell-based
Experimental: (§4) The effect of discodermolide on two human breast carcinoma cell lines, estrogen receptor positive MCF-7 cells, and estrogen receptor negative MDA-MB-231 cells, was determined. The results were compared with those obtained by treatment with taxol. Both lines were examined for drug effects on growth and by indirect immunofluorescence for effects on the microtubule cytoskeleton. The results were similar for both lines. […] These patterns appeared at concentrations as low as 10 nm.

[5] = system: MCF-7 cells and MDA-MB-231 cells; assay: Growth of human breast carcinoma cells; format: cell-based; settings: Breast carcinoma cell, results similar for both lines (MCF-7, MDA-MB-231)
Experimental: as §4

bovine brain tubulin = assay: Tubulin polymerization monitored turbidimetrically; format: biochemical
Experimental: as §1

F7 Fibroblast = assay: Constitutive proliferation of murine non-lymphoid F7 fibroblasts; format: cell-based; settings: Mus musculus, best response
Text: as §5

A549 human lung cells = assay: Cell cycle analysis of A549 human lung cells; format: cell-based; settings: 48 hours
Experimental: Cell cycle studies were initiated in order to pinpoint a specific phase within the cell cycle in which discodermolide was exerting its antiproliferative effect. GI-101A human breast and A549 human lung cells were used as cell cycle targets to compare the effects of discodermolide and taxol on perturbation of the cell cycle. Cell cycle analyses were performed as follows: GI-101A and A549 cells were incubated at 37° C. in 10% CO2 in air in the presence or absence of varying concentrations of discodermolide or taxol (purchased from Molecular Probes, Eugene, Oreg.) for 48 hours. Cells were harvested, fixed in ethanol, and stained with 0.5 mg/ml of propidium iodide (P.I.) together with 0.1 mg/ml of RNase A. This procedure permeabilizes live cells and allows entry of P.I. to stain DNA. Stained preparations were analyzed on a Coulter EPICS ELITE with 488 nm excitation with the dead cells excluded by back-gating of P.I. preparations without detergent on forward and side scatter histograms. Fluorescence measurements and resulting DNA histograms were collected from at least 5,000 P.I. stained cells at an emission wavelength of 690 nm. Raw histogram data were further analyzed using a cell cycle analysis program (Multicycle, Phoenix Flow Systems).
Discodermolide and taxol were compared for their effects on the proliferation of A549 human lung cells. Cell cultures were similarly initiated in the presence and absence of various concentrations of discodermolide or taxol and incubated at 37° C. in 10% CO2 in air for 48 hours. Cells were harvested and stained and analyzed on the flow cytometer as outlined above.

[6] = system: Jurkat human leukemia cells; assay: Cell cycle analysis of Jurkat human leukemia cells; format: cell-based; settings: 48 hours, discodermolide 100 ng/ml
Experimental: Discodermolide and taxol were compared for their effects on the proliferation of Jurkat human leukemia cells. Cell cultures were similarly initiated in the presence and absence of various concentrations of discodermolide or taxol and incubated at 37° C. in 10% CO2 in air for 48 hours. Cells were harvested and stained and analyzed on a flow cytometer using standard procedures. […] The percentage of S-phase cells in both groups increased from 25% in the control to 38% in both discodermolide- and taxol-treated cells.

EL-4 Thymoma = assay: Constitutive proliferation of murine lymphoid EL-4 thymoma cells; format: cell-based; settings: Mus musculus; EL-4 Thymoma proliferation; best response
Text: as §5

70Z/3 Pre-B = assay: Constitutive proliferation of murine lymphoid 70Z/3 Pre-B cells; format: cell-based; settings: Mus musculus; 70Z/3 Pre-B proliferation; best response
Text: as §5

BMSC 8.3 = assay: Constitutive proliferation of murine non-lymphoid BMSC 8.3 cells; format: cell-based; settings: Mus musculus; BMSC 8.3 proliferation; best response
Text: as §2

tubulin [7] = assay: Assembly of tubulin without MAPs or GTP; format: biochemical
Experimental: Discodermolide was analyzed for its interactions with tubulin. Tubulin polymerization was monitored turbidimetrically at 350 nm with an electronic temperature controller. Reaction mixtures contained 0.1M 4-morpholine-ethanesulfonate (pH 6.9), 1.0 mg/ml (10 μM) electrophoretically-homogenous bovine brain tubulin freed of unbound nucleotide by gel filtration, […], and 4% (v/v) dimethylsulfoxide. A concentration of 10 μM of discodermolide (curve 3) was compared with the same concentration of taxol (curve 2) and no drug (curve 1), as shown in FIG. 5.

BMSC 25.4 = assay: Constitutive proliferation of murine non-lymphoid BMSC 25.4 cells; format: cell-based; settings: Mus musculus; BMSC 25.4 proliferation; best response
Text: as §2

## C=C/C=C\C(C)C(OC(N)=O)C(C)C(O)C(C)C/C(C)=C\C(C)C(O)C(C)/C=C\C(O)CC1OC(=O)C(C)C(O)C1C (single isomer, unassigned) [discodermolide]
Tubulin [1]
  EC50: 2700 nM
[2]
  IC50: 3 to 60 nM
Tubulin [3]
  electron micrographs of polymers of tubulin: very similar characteristics, presence of polymers, microtubules, and sheets
BMSC 8.6
  IC50: 84 nM
Swiss 3TC
  IC50: 37 nM
M14
  LC50 (in words): particularly effective
Human tumor cell lines; approximately 60 cell lines tested, GI50
  selective cytotoxicity, number of cell lines for GI50: 32 cell lines
Human tumor cell lines; approximately 60 cell lines tested, TGI
  selective cytotoxicity, number of cell lines for TGI: 18 cell lines
Human tumor cell lines; statistical analysis of selective toxicity pattern
  cytotoxicity pattern (COMPARE algorithm): matched that of several previously tested microtubule interactive agents, including the pattern generated by taxol
[4]; Homo sapiens, Breast carcinoma cell, read-out: concentration at which immunofluorescence patterns appeared
  minimal effective concentration: 0.01 µM
[4]; cellular microtubules
  Immunofluorescence patterns: remarkable rearrangement of cellular microtubules
[5]
  IC50: 2.4 nM
Bovine brain tubulin; 10 μM drug, 0° C.
  extent of tubulin polymerization at 0° C.: almost complete
Bovine brain tubulin; 10 μM drug, 10 μM tubulin, MAPs, GTP, control 37° C.
  temperature at which tubulin polymerization/assembly began: 0 °C
Bovine brain tubulin; 10 μM drug, control disassembled
  stability of assembly upon return of the mixture to 0° C.: remained stable
Bovine brain tubulin; compared to taxol
  mechanism of action in regard to stabilization of microtubules: superior to that of taxol
F7 Fibroblast
  IC50: 60 nM
A549 human lung cells; control 19%
  percentage of S phase cells (in words): did not change significantly
A549 human lung cells; discodermolide 100 ng/ml, control 4%
  percentage of cells in G2 /M: 67%
A549 human lung cells; discodermolide 100 ng/ml, control 77%
  percentage of cells in G1: 18%
[6]; control 7%
  percentage of cells in G2 /M: 27%
[6]; control 25%
  percentage of S-phase cells: 38%
[6]; control 68%
  percentage of cells in G1: 35%
EL-4 Thymoma
  IC50: 30 nM
70Z/3 Pre-B
  IC50: 3 nM
BMSC 8.3
  IC50: 50 nM
Tubulin [7]
  assembly of tubulin without MAPs or GTP: induced the assembly of tubulin
Tubulin [7]; especially at low temperatures
  assembly reactions compared to taxol: more dramatic compared to those observed with taxol
BMSC 25.4
  IC50: 59 nM
